pIC50: −log10 of the molar value.
biological target: rhSYK (Homo sapiens, UniProt P43405); assay: biochemical; conditions: not given

Compound | pIC50
Cc1cc(Nc2nccc(C(C)F)n2)cc(-c2cnc(C3(O)CCC(C(N)=O)C(C)(C)C3)s2)c1 (stereo not shown) [Example 119-122] | > 7.00
Cc1cc(Nc2nccc(C(C)(C)O)n2)cc(-c2cnc(C3(O)CCC(C(N)=O)C(C)(C)C3)s2)c1 (stereo not shown) [Example 119-127] | > 7.00
Cc1cc(Nc2nccc(C(F)(F)F)n2)cc(-c2cnc([C@]3(O)CC[C@@H](C(N)=O)C(C)(C)C3)s2)c1 [Example 119-131] | > 7.00
Cc1cc(Nc2nccc(C)n2)cc(-c2cnc([C@@]3(O)CC[C@H](C(=O)NCCCN4CCCC4=O)C(C)(C)C3)s2)c1 [Example 119-135] | > 7.00
Cc1cc(Nc2nccc(C(F)(F)F)n2)cc(-c2cnc([C@]3(O)CC[C@@H](C(=O)N4CCc5cc(O)c(O)cc5C4)CC3)s2)c1 [Example 119-138] | > 7.00
COc1cccc(N2CCN(C(=O)C3CCC(O)(c4ncc(-c5cc(C)cc(Nc6nccc(C(F)(F)F)n6)c5)s4)CC3)CC2)c1 (stereo not shown) [Example 119-139] | > 7.00
COCc1cc(Nc2nccc(C(F)(F)F)n2)cc(-c2cnc(C3(O)CCC(C(N)=O)C(C)C3)s2)c1 (stereo not shown) [Example 119-142] | > 7.00
COCc1cc(Nc2nccc(C(F)(F)F)n2)cc(-c2cnc([C@@]3(O)CC[C@H](C(N)=O)C(C)(C)C3)s2)c1 [Example 119-143] | > 7.00
CC1(C)C[C@@](O)(c2ncc(-c3cc(Cl)cc(Nc4nccc(C(F)(F)F)n4)c3)s2)CC[C@@H]1C(N)=O [Example 119-144] | > 7.00
NC(=O)[C@H]1CC[C@](O)(c2ncc(-c3cc(Cl)cc(Nc4nccc(C(F)(F)F)n4)c3)s2)CC1 [Example 119-145] | > 7.00
Cc1cc(Nc2nccc(C(F)(F)F)n2)cc(-c2cnc([C@]3(O)CC[C@@H](C(=O)NCc4ccncc4)CC3)s2)c1 [Example 191-53] | > 7.00

More lines, now with the values ahead:

pIC50 | Compound
> 7.00 | Cc1cc(Nc2nccc(C(C)(C)C)n2)cc(-c2cnc(C3(O)CCC(C(N)=O)C(C)(C)C3)s2)c1 (stereo not shown) [Example 119-125]
> 7.00 | COc1ccnc(Nc2cc(C)cc(-c3cnc([C@@]4(O)CC[C@H](C(=O)NCC#N)C(C)(C)C4)s3)c2)n1 [Example 119-133]
> 7.00 | COc1ccnc(Nc2cc(C)cc(-c3cnc([C@@]4(O)CC[C@H](C(=O)NCc5cccnc5)C(C)(C)C4)s3)c2)n1 [Example 119-134]
> 7.00 | Cc1cc(Nc2nccc(C(F)(F)F)n2)cc(-c2cnc([C@@]3(O)CC[C@H](C(=O)Nc4cccnc4)C(C)(C)C3)s2)c1 [Example 119-136]
> 7.00 | Cc1cc(Nc2nccc(C(F)(F)F)n2)cc(-c2cnc([C@]3(O)CC[C@@H](C(=O)NC(CO)CO)CC3)s2)c1 [Example 191-33]
> 7.00 | Cc1cc(Nc2nccc(C(F)(F)F)n2)cc(-c2cnc(C3(O)CCC(C(=O)NCc4cccnc4)CC3)s2)c1 (stereo not shown) [Example 191-52]
> 7.00 | CC1(C)CC(O)(c2ncc(-c3cc(CO)cc(Nc4nccc(C(F)(F)F)n4)c3)s2)CCC1C(N)=O (stereo not shown) [Example 191-141]

tested on: PGD2; assay: not given; conditions: dosed intranasally, phase I/II study, allergic rhinitis; cited from earlier work

Compound | decrease in PGD2
Oc1cccc(Nc2ncc(F)c(Nc3cccc(O)c3)n2)c1 [Example R112] | statistically significant decrease
